Laboratory results reported in PMC6659393, “A New Use for an Old Drug: Carmofur Attenuates Lipopolysaccharide (LPS)-Induced Acute Lung Injury via Inhibition of FAAH and NAAA Activities” (Frontiers in Pharmacology, 2019).

Key:
[1] = target: T1, fatty acid amide hydrolase (FAAH) (Rattus norvegicus, UniProt P97612); assay: AEA hydrolysis by HPLC-MS in crude protein of carmofur-treated HEK293-rFAAH cells; dialysis reversibility test; assay type: cell-based
T1 construct: rat FAAH overexpressed in HEK293 cells (HEK293-rFAAH), crude protein
T1 sequence (P97612 1-579): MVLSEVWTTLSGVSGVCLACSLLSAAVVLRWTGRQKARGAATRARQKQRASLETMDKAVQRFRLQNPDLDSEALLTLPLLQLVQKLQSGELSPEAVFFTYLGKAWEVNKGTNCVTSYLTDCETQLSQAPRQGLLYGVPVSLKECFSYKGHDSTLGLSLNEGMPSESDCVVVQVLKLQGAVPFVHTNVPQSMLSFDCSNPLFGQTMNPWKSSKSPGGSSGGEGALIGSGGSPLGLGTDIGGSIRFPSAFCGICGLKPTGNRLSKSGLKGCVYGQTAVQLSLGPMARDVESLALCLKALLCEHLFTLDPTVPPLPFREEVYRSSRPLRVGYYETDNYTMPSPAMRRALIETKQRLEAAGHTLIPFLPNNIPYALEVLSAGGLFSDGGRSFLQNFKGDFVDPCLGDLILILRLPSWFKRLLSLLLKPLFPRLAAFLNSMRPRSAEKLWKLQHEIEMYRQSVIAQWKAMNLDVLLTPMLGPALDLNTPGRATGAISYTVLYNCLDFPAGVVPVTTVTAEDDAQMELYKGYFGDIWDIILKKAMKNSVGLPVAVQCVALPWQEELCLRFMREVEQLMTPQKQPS

[2] = target: T2, N-acylethanolamine acid amidase (NAAA) (Rattus norvegicus, UniProt Q5KTC7); assay: C17:[…] FAE hydrolysis by HPLC-MS in crude protein of carmofur-treated HEK293-rNAAA cells; dialysis reversibility test; assay type: cell-based
T2 construct: rat NAAA overexpressed in HEK293 cells (HEK293-rNAAA), crude protein
T2 sequence (Q5KTC7 34-130): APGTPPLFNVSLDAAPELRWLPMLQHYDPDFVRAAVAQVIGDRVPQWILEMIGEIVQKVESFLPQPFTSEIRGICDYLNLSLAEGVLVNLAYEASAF
T2 sequence (Q5KTC7 131-362): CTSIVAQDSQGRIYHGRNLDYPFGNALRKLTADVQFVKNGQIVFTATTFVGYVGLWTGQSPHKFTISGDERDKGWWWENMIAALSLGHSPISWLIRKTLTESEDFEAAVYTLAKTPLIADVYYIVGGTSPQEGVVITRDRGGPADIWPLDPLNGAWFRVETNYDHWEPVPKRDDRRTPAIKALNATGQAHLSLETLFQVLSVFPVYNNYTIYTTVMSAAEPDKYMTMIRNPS

IC50 [1]: 110 ± 25 nM
IC50 [2]: 710 ± 54 nM
Compound: CCCCCCNC(=O)n1cc(F)c(=O)[nH]c1=O [carmofur]
